Source: patent US4315017A, “Triazole derivatives” (priority 1978, dated 1982)
Values joined by “and” are separate entries in the source; they are usually repeats but may differ in a detail not shown here. Equal entries are not always repeated.

Experiments:
Type in all cases: in vivo
[1] = system: oriental cockroaches (Blatta orientalis); test: Synergistic action on oriental cockroaches, treated jar bottom; conditions: single substance; kill rate after 48 hours
Method: Synergistic action on oriental cockroaches (Blatta orientalis)
After the solvent has evaporated, 5 adult cockroaches (Blatta orientalis) are placed in each jar, and the kill rate is determined after 48 hours.
The application rates are in logarithmic progression and permit a dose-effect curve to be drawn; the LD50 is determined graphically and serves as a basis for assessment.

[2] = system: granery weevils (Sitophilus granarius); test: Synergistic action on granary weevils (treated Petri dishes); conditions: single substance; 4 hours exposure, kill rate after 24 hours
Method: Synergistic action on granery weevils (Sitophilus granarius)
Petri dishes 10 cm in diameter are lined with acetonic solutions of the active ingredients. After the solvent has evaporated, 50 granary weevils are placed in each dish.
After 4 hours, the weevils are transferred to untreated vessels. The kill rate is determined after 24 hours, by counting how many weevils are, after this period has elapsed, capable of leaving an untreated cardboard dish (40 mm in diameter, 10 mm high) within 60 minutes.

[3] = system: houseflies (Musca domestica); test: Synergistic action on houseflies, dip experiment; conditions: single substance; active ingredient concentration in %
Method: Synergistic action on houseflies (Musca domestica; dip experiment)
100 ml of aqueous active ingredient formulations (active ingredient concentration in %) is poured over 20 adult houseflies (Musca domestica) on a filter in a nutsch (15 cm in diameter). A gauze lid prevents the animals from surfacing during treatment. After 5 seconds the formulation is filtered off and the flies are transferred to clean Petri dishes (10 cm in diameter) on the bottom of which a round filter paper has been placed.
The animals in supine position are counted after 4 and 24 hours.

[4] = system: houseflies (Musca domestica); test: Synergistic action on houseflies; continuous contact (Petri dish); conditions: single substance; kill rate after 4 hours
Method: Synergistic action on houseflies (Musca domestica); continuous contact
Both covers and bottoms of Petri dishes 10 cm in diameter are lined with a total per dish of 2 ml of acetonic solutions of the active ingredients. After the solvent has evaporated (about 30 mins.), 10 flies are introduced into each dish.
The kill rate is determined after 4 hours and the LD50 is determined graphically.

[5] = system: houseflies (Musca domestica); test: Contact action on houseflies (application to ventral abdomen); conditions: single substance; kill rate after 4 hours
Method: Contact action on houseflies (Musca domestica)
1 μl of the active ingredient dissolved in acetone is administered to the ventral abdomen of 4-day old imagoes under slight CO2 narcosis. 20 animals treated in the same way are then placed in a cellophane bag having a volume of approximately 500 ml.
After 4 hours the kill rate is determined, a dose-mortality curve is drawn from the different concentrations, and the LD50 is worked out.

Row | Molecule | LD 50 [1] [mg] | LD 50 [2] | LD 50 after 4 hours [3] [%] | LD 50 after 24 hours [3] [%] | LD 50 [4] [mg] | LD 50 [5] [μg/fly]
1 | Cc1ccc(Cn2cncn2)cc1 [No. 9] | > 2.0 | > 4 mg |  |  |  | 
2 | C=C(Cn1cncn1)c1ccccc1 [No. 8] | 9.0 | > 2 mg |  |  |  | 
3 | ClC(Cn1cncn1)c1ccccc1 (centres unmarked) [No. 2] | > 5.0 |  | > 0.2 | 0.1 | 0.2 | 
4 | c1ccc(CCCn2cncn2)cc1 [No. 5] | > 2.0 | > 2 mg | > 0.2 | 0.05 |  | > 10
5 | ClC(Cn1cncn1)c1ccccc1 (centres unmarked) [No. 1] | > 5.0 | > 2 mg and > 1 mg | 0.085 | 0.05 | > 2.0 | 
6 | Fc1ccc(C=Cn2cncn2)cc1 [No. 4] | > 5.0 |  |  |  | > 2.0 | 
7 | CC(C)(C)c1ccc(Cn2cncn2)cc1 [No. 11] | > 10.0 | > 2 mg |  |  |  | 
8 | 2,5-diethylphenyl-N-methylcarbamate [Fenethcarb, reference compound] | 0.45 |  |  |  |  | 
9 | CCOC(=O)CC(SP(=S)(OC)OC)C(=O)OCC (centres unmarked) [Malathion, reference compound] | 0.12 |  |  |  |  | 
10 | CC(c1ccccc1)n1cncn1 (centres unmarked) [No. 7] | > 2.0 |  |  |  |  | 
11 | Cc1nc(N(C)C)nc(OC(=O)N(C)C)c1C [Pirimicarb, 2-dimethylamino-5,6-dimethyl-4-pyrimidinyl-N,N-dimethylcarbamate, reference compound] | > 30 |  | 0.05 | 0.04 |  | 
12 | CCc1ccc(Cn2cncn2)cc1 [No. 10] | > 2.0 | > 2 mg |  |  |  | 
13 | C(=Cc1ccccc1)Cn1cncn1 [No. 6] | 9.0 | > 2 mg | > 0.2 | 0.07 |  | 
14 | C=CCC1=C(C)C(OC(=O)C2C(C=C(C)C)C2(C)C)CC1=O (mixture of isomers) [Allethrin, DL-2-allyl-3-methylcyclopenten-2-on-(1)-yl-(4)-DL-cis,trans-chrysanthemate, reference compound] | 0.11 |  |  |  |  | 
15 | Clc1ccc(C=Cn2cncn2)c(Cl)c1 [No. 3] | > 5.0 |  | 0.2 | 0.05 |  | 
